Each structure is given as a SMILES string.

Chain of Active human KLK7 (SCCE) (P49862 30-253): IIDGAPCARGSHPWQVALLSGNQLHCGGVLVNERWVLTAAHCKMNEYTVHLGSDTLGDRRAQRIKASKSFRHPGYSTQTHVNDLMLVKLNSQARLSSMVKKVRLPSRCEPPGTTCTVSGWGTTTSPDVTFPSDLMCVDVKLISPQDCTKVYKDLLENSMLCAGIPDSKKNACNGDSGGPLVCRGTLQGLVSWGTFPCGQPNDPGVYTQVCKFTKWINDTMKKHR

This test deals with Active human KLK7 (SCCE) (Homo sapiens (Human), UniProt P49862). Kind of test: KLK7 Inhibitor Test. The note with it: substrate MeO-Suc-Arg-Pro-Tyr-pNA, pH 7.2, 37° C., absorbance at 405 nm. Type of test: biochemical. Here is the method:
KLK7 Inhibitor Test Substrate:(MeO-Suc-[…]), acetate salt, Peptide international, lot #906841, previously named S-2586 Enzyme: […] Buffer: 10 mM NaPhospate, 0.5 M NaCl, pH 7.2 […] 10 μl of substance in DMSO was added to wells giving final concentrations of 20 μ[…], and 0.15625 μM. 40 μl of active KLK7 (SCCE) (diluted to 12.5 μg/ml in activity buffer) was added all wells except blank to which activity buffer was added. […] The mean value V of each sample was calculated (n=2 for the substances and n=4 for the control). From the values of V the % of total activity was calculated as (Vinhibitor/Vcontrol (no inhibitor))×100. Plotting and calculation was then done in originPro. % of total activity (y) was plotted vs. log [inhibitor] (log x) and a function of dose response y=A1+(A2-A1)/(1+10^((LOG(x0)-x)*p)) where A1=Bottom platue, A2=Top platue, x0=EC50 and p=Hill slope was fitted to the curve. […] The IC50 values were used to identify KLK7 inhibitors according to the invention.
Turning to `O=C(COC(=O)Cc1ccc(Cl)cc1)Nc1ccc(F)cc1` [Compound 50], the IC50 (usually the concentration needed to halve the response being measured) was found to be 0.79 µM.

Regarding `O=C(COC(=O)CCC1CCCC1)Nc1ccc(F)cc1` [Compound 51], the IC50 is 0.83 µM.

`Cc1cc(NC(=O)C(C)OC(=O)C(NC(=O)c2ccccc2)c2ccccc2)no1` (centres unmarked) [Compound 52, [1-methyl-2-[(5-methylisoxazol-3-yl)amino]-2-oxo-ethyl] 2-benzamido-2-phenyl-acetate] returned an IC50 of 0.95 µM.

For the compound `CC(OC(=O)C(c1ccccc1)c1ccccc1)C(=O)Nc1ccccc1` (centres unmarked) [Compound 53], half-maximal inhibition (IC50) required 1.1 µM.

Regarding `Cc1cc(NC(=O)C(OC(=O)C(c2ccccc2)c2ccccc2)c2ccccc2)no1` (centres unmarked) [Compound 54, [2-[(5-methylisoxazol-3-yl)amino]-2-oxo-1-phenyl-ethyl] 2,2-diphenylacetate], the IC50 stood at 1.1 µM.

Consider `O=C(COC(=O)CCC1CCCC1)Nc1ccccc1` [Compound 55], for which half-maximal inhibition (IC50) required 1.11 µM.

For `COc1ccc(CC(=O)OC(C(=O)Nc2ccc(F)cc2)c2ccccc2)cc1` (centres unmarked) [Compound 56], inhibition was half-maximal at 1.17 µM (IC50). This IC50 and that of the compound before are within 1.5-fold of each other.

`COc1ccc(NC(=O)C(C)OC(=O)C(c2ccccc2)c2ccccc2)cc1` (centres unmarked) [Compound 57] had an IC50 of 1.18 µM. The IC50 values of the last two compounds are within 1.5-fold of each other.

With `Cc1cc(NC(=O)COC(=O)CCC2CCCC2)no1` [Compound 58], the IC50 was 1.2 µM.

On to `COc1ccc(NC(=O)COC(=O)C(NC(=O)c2ccccc2)c2ccccc2)cc1` (centres unmarked) [Compound 59, [2-(4-methoxyanilino)-2-oxo-ethyl] 2-benzamido-2-phenyl-acetate], for which the IC50 was found to be 1.23 µM.

As to `Cc1cc(NC(=O)COC(=O)C(NC(=O)c2ccccc2)c2ccccc2)no1` (centres unmarked) [Compound 60, [2-[(5-methylisoxazol-3-yl)amino]-2-oxo-ethyl] 2-benzamido-2-phenyl-acetate], the midpoint of inhibition, the IC50, lay at 1.47 µM.

In turn, `O=C(COC(=O)C(NC(=O)c1ccccc1)c1ccccc1)Nc1ccc(F)cc1` (centres unmarked) [Compound 61, [2-(4-fluoroanilino)-2-oxo-ethyl] 2-benzamido-2-phenyl-acetate] displayed an IC50 of 1.51 µM.

`O=C(COC(=O)C(NC(=O)c1ccccc1)c1ccccc1)Nc1ccccc1` (centres unmarked) [Compound 62, (2-anilino-2-oxo-ethyl) 2-benzamido-2-phenyl-acetate] displayed a 50% inhibitory concentration (IC50) of 1.56 µM.

Compound `CC(OC(=O)C(c1ccccc1)c1ccccc1)C(=O)Nc1ccc(F)cc1` (centres unmarked) [Compound 63] came in with a half-inhibitory concentration (IC50) of 1.62 µM.

For the compound `CCC(OC(=O)C(NC(=O)c1ccccc1)c1ccccc1)C(=O)Nc1ccc(OC)cc1` (centres unmarked) [Compound 64, 1-[(4-methoxyphenyl)carbamoyl]propyl 2-benzamido-2-phenyl-acetate], the IC50 is 1.7 µM. The IC50 values of the last two compounds are within 1.5-fold of each other.

As for `CCC(OC(=O)C(NC(=O)c1ccccc1)c1ccccc1)C(=O)Nc1ccc(F)cc1` (centres unmarked) [Compound 65, 1-[(4-fluorophenyl)carbamoyl]propyl 2-benzamido-2-phenyl-acetate], half-maximal inhibition (IC50) was put at 1.79 µM.

For `CC(OC(=O)C(NC(=O)c1ccccc1)c1ccccc1)C(=O)Nc1ccccc1` (centres unmarked) [Compound 66, (2-anilino-1-methyl-2-oxo-ethyl) 2-benzamido-2-phenyl-acetate], the IC50 was 1.85 µM.

Compound `COc1ccc(CC(=O)OCC(=O)Nc2ccc(F)cc2)cc1` [Compound 67] registered an IC50 of 2.28 µM.

`COc1ccc(CC(=O)OCC(=O)Nc2ccc(OC)cc2)cc1` [Compound 68]: half-maximal inhibition (IC50) was put at 2.31 µM. This IC50 and that of the compound before are within 1.5-fold of each other.

Regarding `Cc1cc(NC(=O)COC(=O)CCC2CCCC2)no1` [Compound 69], the IC50 is 2.7 µM.

The compound `Cc1cc(NC(=O)C(OC(=O)Cc2ccc(Cl)cc2)C(C)C)no1` (centres unmarked) [Compound 70, [2-methyl-1-[(5-methylisoxazol-3-yl)carbamoyl]propyl] 2-(4-chlorophenyl)acetate] showed an IC50 of 2.7 µM.

On to `COc1ccc(NC(=O)C(C)OC(=O)C(NC(=O)c2ccccc2)c2ccccc2)cc1` (centres unmarked) [Compound 71, [2-(4-methoxyanilino)-1-methyl-2-oxo-ethyl] 2-benzamido-2-phenyl-acetate], for which the IC50 was determined as 2.76 µM.

The compound `Cc1cc(NC(=O)C(OC(=O)CCC2CCCC2)C(C)C)no1` (centres unmarked) [Compound 72, [2-methyl-1-[(5-methylisoxazol-3-yl)carbamoyl]propyl] 3-cyclopentylpropanoate] came in with a 50% inhibitory concentration (IC50) of 2.78 µM.

The compound `Cc1cc(NC(=O)COC(=O)Cc2ccc(Cl)cc2)no1` [Compound 73] displayed an IC50 of 2.9 µM.

On to `COc1ccc(CC(=O)OCC(=O)Nc2cc(C)on2)cc1` [Compound 74], for which the IC50 was determined as 3.05 µM.

As to `Cc1cc(NC(=O)C(OC(=O)C(NC(=O)c2ccccc2)c2ccccc2)C(C)C)no1` (centres unmarked) [Compound 75, [2-methyl-1-[(5-methylisoxazol-3-yl)carbamoyl]propyl] 2-benzamido-2-phenyl-acetate], the IC50 worked out at 3.26 µM.

In turn, `O=C(NC(C(=O)OC(C(=O)Nc1ccccc1)c1ccccc1)c1ccccc1)c1ccccc1` (centres unmarked) [Compound 76, (2-anilino-2-oxo-1-phenyl-ethyl) 2-benzamido-2-phenyl-acetate] yielded an IC50 of 3.34 µM. This IC50 and that of the compound before are within 1.5-fold of each other.

Consider `COc1ccc(CC(=O)OCC(=O)Nc2ccccc2)cc1` [Compound 77], for which 3.89 µM corresponded to half-maximal inhibition (IC50).

`COc1ccc(NC(=O)C(OC(=O)C(c2ccccc2)c2ccccc2)c2ccccc2)cc1` (centres unmarked) [Compound 78, [2-(4-methoxyanilino)-2-oxo-1-phenyl-ethyl] 2,2-diphenylacetate] came in with an IC50 of 4.33 µM.

In the case of `Cc1cc(NC(=O)C(OC(=O)C(c2ccccc2)c2ccccc2)C(C)C)no1` (centres unmarked) [Compound 79, [2-methyl-1-[(5-methylisoxazol-3-yl)carbamoyl]propyl] 2,2-diphenylacetate], it took 4.56 µM to reach half-maximal inhibition (IC50).

Turning to `Cc1cc(NC(=O)COC(=O)C(c2ccccc2)c2ccccc2)no1` [Compound 80], inhibition was half-maximal at 4.7 µM (IC50).

`Cc1cc(NC(=O)COC(=O)Cc2ccc(Cl)cc2)no1` [Compound 81, [2-[(5-methylisoxazol-3-yl)amino]-2-oxo-ethyl] 2-(4-chlorophenyl)acetate]: 5 µM corresponded to half-maximal inhibition (IC50).

As to `CCC(OC(=O)C(CCSC)NC(=O)c1ccccc1)C(=O)Nc1cc(C)on1` (centres unmarked) [Compound 82], the half-inhibitory concentration (IC50) is 5.5 µM. This IC50 and that of the compound before are within 1.5-fold of each other.

With `CC(OC(=O)C(NC(=O)c1ccccc1)c1ccccc1)C(=O)NCc1ccccc1` (centres unmarked) [Compound 83, [2-(benzylamino)-1-methyl-2-oxo-ethyl] 2-benzamido-2-phenyl-acetate], the IC50 was 5.89 µM.

Consider `COc1ccc(CC(=O)OC(C(=O)Nc2cc(C)on2)C(C)C)cc1` (centres unmarked) [Compound 84, [2-methyl-1-[(5-methylisoxazol-3-yl)carbamoyl]propyl] 2-(4-methoxyphenyl)acetate], for which the IC50 came to 6.25 µM.

`CCC(OC(=O)C(NC(=O)c1ccccc1)c1ccccc1)C(=O)Nc1cc(C)on1` (centres unmarked) [Compound 85] returned a concentration for half-maximal inhibition (IC50) of 6.43 µM. The IC50 values of the last two compounds are within 1.5-fold of each other.

In turn, `Cc1cc(NC(=O)COC(=O)C(c2ccccc2)c2ccccc2)no1` [Compound 86] showed an IC50 of 6.64 µM.

In turn, `COc1ccc(NC(=O)COC(=O)C(c2ccccc2)c2ccccc2)cc1` [Compound 87] had an IC50 of 7.39 µM.

On to `O=C(COC(=O)C(c1ccccc1)c1ccccc1)Nc1ccc(F)cc1` [Compound 88], for which the half-maximal inhibitory concentration (IC50) worked out at 8.49 µM.

In turn, `CCC(OC(=O)C(CC(C)C)NC(=O)c1ccccc1)C(=O)Nc1cc(C)on1` (centres unmarked) [Compound 89] had a concentration for half-maximal inhibition (IC50) of 9.1 µM.

With `O=C(COC(=O)C(c1ccccc1)c1ccccc1)Nc1ccccc1` [Compound 90], the midpoint of inhibition, the IC50, lay at 11.2 µM.

For `CC(C)C(OC(=O)Cc1ccc(Cl)cc1)C(=O)Nc1ccccc1` (centres unmarked) [Compound 91, [2-methyl-1-(phenylcarbamoyl)propyl] 2-(4-chlorophenyl)acetate], the half-maximal inhibitory concentration (IC50) amounted to 4.1 µM.

Compound `COc1ccc(NC(=O)C(OC(=O)Cc2ccc(Cl)cc2)C(C)C)cc1` (centres unmarked) [Compound 92, [1-[(4-methoxyphenyl)carbamoyl]-2-methyl-propyl] 2-(4-chlorophenyl)acetate] yielded an IC50 of 3.8 µM.

`CC(C)C(OC(=O)C(NC(=O)c1ccccc1)c1ccccc1)C(=O)Nc1ccccc1` (centres unmarked) [Compound 93, [2-methyl-1-(phenylcarbamoyl)propyl] 2-benzamido-2-phenyl-acetate] displayed an IC50 of 2.3 µM.

For the compound `COc1ccc(CC(=O)OC(C(=O)Nc2ccccc2)C(C)C)cc1` (centres unmarked) [Compound 94, [2-methyl-1-(phenylcarbamoyl)propyl] 2-(4-methoxyphenyl)acetate], the IC50 was determined as 3.6 µM.

The compound `COc1ccc(NC(=O)C(OC(=O)C(NC(=O)c2ccccc2)c2ccccc2)C(C)C)cc1` (centres unmarked) [Compound 95, [1-[(4-methoxyphenyl)carbamoyl]-2-methyl-propyl] 2-benzamido-2-phenyl-acetate] returned a 50% inhibitory concentration (IC50) of 6.3 µM.

For `CC(C)C(OC(=O)C(NC(=O)c1ccccc1)c1ccccc1)C(=O)Nc1ccc(F)cc1` (centres unmarked) [Compound 96, [1-[(4-fluorophenyl)carbamoyl]-2-methyl-propyl] 2-benzamido-2-phenyl-acetate], half-maximal inhibition (IC50) required 3.7 µM.

Values taken from patent US9744148B2, “Kallikrein 7 inhibitors” (SIXERA PHARMA AB, priority 2014, dated 2017).
